According to ChEMBL document CHEMBL5465560, “Selectivity Literature for EUbOPEN Chemogenomic Library” (2024):
Each block holds one molecule with its values, some of them ahead of it.

Assays:
[1] = molecular target: T1, Serine/threonine-protein kinase D2 (Homo sapiens) (UniProt Q9BZL6); test: Selectivity interaction (Kinase panel (Z-LYTE Assay)) EUB0001632a PRKD2; conditions: at 10 µM
T1 sequence (whole entry): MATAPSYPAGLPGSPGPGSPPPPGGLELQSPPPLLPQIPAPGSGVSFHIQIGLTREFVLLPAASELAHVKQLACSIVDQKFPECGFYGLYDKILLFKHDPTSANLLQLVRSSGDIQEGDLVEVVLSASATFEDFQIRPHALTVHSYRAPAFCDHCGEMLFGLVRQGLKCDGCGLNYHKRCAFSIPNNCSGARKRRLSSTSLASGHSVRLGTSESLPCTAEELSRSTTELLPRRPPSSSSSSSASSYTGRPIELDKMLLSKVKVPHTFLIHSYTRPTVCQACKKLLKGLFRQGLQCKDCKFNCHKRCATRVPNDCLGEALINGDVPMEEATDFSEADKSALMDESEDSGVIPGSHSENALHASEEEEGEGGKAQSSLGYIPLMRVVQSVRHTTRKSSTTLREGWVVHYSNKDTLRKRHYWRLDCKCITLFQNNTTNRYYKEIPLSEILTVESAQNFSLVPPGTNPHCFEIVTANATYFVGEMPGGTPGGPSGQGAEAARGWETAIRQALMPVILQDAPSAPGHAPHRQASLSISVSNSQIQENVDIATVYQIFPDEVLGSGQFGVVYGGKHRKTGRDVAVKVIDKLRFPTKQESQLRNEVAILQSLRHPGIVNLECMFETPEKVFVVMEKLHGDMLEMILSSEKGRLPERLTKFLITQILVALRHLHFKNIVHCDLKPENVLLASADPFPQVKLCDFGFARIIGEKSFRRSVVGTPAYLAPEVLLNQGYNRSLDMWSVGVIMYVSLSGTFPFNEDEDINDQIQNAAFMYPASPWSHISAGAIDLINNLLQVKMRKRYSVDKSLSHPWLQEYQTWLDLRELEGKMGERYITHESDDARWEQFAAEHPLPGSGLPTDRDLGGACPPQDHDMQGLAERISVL

[2] = molecular target: TRAF2 and NCK-interacting protein kinase (Homo sapiens) (UniProt Q9UKE5); test: Selectivity interaction (KinomeScan (DiscoverX)) EUB0001079a TNIK; conditions: at 1 µM
[3] = molecular target: Serine/threonine-protein kinase tousled-like 2 (Homo sapiens) (UniProt Q86UE8); test: Selectivity interaction (KinomeScan (DiscoverX)) EUB0000092b TLK2; conditions: at 10 µM
[4] = molecular target: Epithelial discoidin domain-containing receptor 1 (Homo sapiens) (UniProt Q08345); test: Selectivity interaction (KinomeScan (DiscoverX)) EUB0000045b DDR1
[5] = molecular target: T2, Serine/threonine-protein kinase STK11 (Homo sapiens) (UniProt Q15831); test: Selectivity interaction (KinomeScan (DiscoverX)) EUB0000045b STK11
T2 sequence (whole entry): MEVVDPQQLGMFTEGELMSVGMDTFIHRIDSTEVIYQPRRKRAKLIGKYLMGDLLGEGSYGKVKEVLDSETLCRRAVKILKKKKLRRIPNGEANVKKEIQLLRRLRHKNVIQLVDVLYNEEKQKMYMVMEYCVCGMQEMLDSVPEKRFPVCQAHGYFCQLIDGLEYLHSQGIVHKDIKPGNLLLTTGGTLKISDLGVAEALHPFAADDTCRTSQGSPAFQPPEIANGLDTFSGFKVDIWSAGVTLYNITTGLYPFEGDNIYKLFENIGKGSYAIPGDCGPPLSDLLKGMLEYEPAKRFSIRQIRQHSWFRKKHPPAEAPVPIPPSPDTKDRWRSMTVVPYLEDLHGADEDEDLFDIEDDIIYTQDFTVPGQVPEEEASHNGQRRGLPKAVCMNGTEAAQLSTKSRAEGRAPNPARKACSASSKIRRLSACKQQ

[6] = molecular target: Mitogen-activated protein kinase 1 (Homo sapiens, UniProt P28482); test: Selectivity interaction (KinomeScan (DiscoverX)) EUB0000045b MAPK1
[7] = molecular target: Calcium/calmodulin-dependent protein kinase type II subunit beta (Homo sapiens) (UniProt Q13554); test: Selectivity interaction (KinomeScan (DiscoverX)) EUB0000655a CAMK2B; conditions: at 10 µM
[8] = molecular target: Ribosomal protein S6 kinase alpha-1 (Homo sapiens, UniProt Q15418); test: Selectivity interaction (KinomeScan (DiscoverX)) EUB0000311b RPS6KA1; conditions: at 1 µM
[9] = molecular target: Protein kinase C beta type (Homo sapiens, UniProt P05771); test: Selectivity interaction (SelectScreen profiling (Invitrogen)) EUB0000607a PRKCB; conditions: at 2 µM
[10] = molecular target: T3, Calcium/calmodulin-dependent protein kinase type IV (Homo sapiens) (UniProt Q16566); test: Selectivity interaction (Kinase panel (KiNativ target engagement assay in Jurkat cells)) EUB0001635a CAMK4; format: cell-based; conditions: Selectivity number of off-targets 0.0, Selectivity number of targets 233.0, Source Knowledge https://www.sciencedirect.com/science/article/pii/S2451945619300674?via%3Dihub, at 1 µM
T3 sequence (whole entry): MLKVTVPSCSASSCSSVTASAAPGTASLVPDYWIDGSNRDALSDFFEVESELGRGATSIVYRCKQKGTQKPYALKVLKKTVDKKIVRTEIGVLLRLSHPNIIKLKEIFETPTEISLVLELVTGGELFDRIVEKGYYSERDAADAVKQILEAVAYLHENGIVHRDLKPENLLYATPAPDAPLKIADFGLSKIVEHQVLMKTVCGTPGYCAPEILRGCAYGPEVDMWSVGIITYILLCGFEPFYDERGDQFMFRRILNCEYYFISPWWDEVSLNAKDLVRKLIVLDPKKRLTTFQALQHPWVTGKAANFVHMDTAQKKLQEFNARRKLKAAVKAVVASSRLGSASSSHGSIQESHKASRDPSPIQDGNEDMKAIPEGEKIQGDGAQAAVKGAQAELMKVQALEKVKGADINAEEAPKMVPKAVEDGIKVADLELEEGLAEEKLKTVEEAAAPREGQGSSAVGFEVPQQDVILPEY

[11] = molecular target: T4, Mitogen-activated protein kinase 13 (Homo sapiens) (UniProt O15264); test: Selectivity interaction (KinomeScan (DiscoverX)) EUB0000666a MAPK13; conditions: at 10 µM
T4 sequence (whole entry): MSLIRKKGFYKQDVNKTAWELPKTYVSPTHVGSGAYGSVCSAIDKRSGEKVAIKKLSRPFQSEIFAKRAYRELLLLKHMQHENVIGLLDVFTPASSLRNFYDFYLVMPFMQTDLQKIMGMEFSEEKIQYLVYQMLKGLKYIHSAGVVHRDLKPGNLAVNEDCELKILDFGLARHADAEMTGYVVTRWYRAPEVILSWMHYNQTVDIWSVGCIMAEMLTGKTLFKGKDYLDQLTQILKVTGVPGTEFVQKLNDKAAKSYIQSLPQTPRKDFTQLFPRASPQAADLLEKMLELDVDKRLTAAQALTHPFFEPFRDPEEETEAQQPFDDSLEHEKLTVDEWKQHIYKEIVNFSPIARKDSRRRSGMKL

[12] = molecular target: Tyrosine-protein kinase Srms (Homo sapiens) (UniProt Q9H3Y6); test: Selectivity interaction (KinomeScan (DiscoverX)) EUB0000666a SRMS; conditions: at 10 µM
Chain of Tyrosine-protein kinase Srms (Homo sapiens) (Q9H3Y6 whole entry): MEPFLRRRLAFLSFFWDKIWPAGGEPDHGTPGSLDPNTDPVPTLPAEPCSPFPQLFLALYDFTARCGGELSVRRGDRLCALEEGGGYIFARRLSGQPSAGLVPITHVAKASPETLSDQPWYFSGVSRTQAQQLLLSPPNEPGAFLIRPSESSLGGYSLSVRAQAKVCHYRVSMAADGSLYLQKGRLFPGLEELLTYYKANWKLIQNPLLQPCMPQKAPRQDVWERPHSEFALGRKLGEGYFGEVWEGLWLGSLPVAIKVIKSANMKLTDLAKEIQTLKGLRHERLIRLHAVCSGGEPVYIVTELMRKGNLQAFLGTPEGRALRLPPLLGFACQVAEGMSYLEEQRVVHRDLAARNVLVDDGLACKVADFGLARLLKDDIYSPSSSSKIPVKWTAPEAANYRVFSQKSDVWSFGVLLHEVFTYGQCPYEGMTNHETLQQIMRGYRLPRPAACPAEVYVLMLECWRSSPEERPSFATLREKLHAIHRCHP

Chain of Epithelial discoidin domain-containing receptor 1 (Homo sapiens) (Q08345 whole entry, the tested form may be a part): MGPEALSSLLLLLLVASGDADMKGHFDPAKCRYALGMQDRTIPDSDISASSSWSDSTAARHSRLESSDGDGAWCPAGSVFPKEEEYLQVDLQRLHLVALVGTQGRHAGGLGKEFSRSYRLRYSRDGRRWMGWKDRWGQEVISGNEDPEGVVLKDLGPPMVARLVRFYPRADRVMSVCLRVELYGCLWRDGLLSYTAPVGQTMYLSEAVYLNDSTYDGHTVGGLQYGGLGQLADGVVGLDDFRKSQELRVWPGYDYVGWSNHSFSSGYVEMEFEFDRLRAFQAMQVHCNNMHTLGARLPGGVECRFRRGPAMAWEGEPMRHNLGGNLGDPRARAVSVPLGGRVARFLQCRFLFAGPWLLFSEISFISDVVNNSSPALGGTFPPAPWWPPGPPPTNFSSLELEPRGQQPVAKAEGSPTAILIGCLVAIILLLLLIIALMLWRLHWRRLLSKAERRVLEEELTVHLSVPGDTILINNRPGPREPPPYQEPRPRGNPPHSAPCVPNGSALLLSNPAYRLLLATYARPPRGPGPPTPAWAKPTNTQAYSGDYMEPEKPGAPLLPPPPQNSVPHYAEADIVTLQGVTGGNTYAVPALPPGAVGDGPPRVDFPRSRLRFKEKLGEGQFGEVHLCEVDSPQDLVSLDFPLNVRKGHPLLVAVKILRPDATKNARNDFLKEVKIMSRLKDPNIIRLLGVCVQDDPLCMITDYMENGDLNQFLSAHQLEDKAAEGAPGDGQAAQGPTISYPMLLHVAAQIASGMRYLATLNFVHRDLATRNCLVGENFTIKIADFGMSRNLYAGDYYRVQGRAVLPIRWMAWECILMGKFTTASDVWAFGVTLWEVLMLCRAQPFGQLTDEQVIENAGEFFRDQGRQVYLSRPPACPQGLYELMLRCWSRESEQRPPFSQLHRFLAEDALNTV
Chain of Mitogen-activated protein kinase 1 (P28482 whole entry): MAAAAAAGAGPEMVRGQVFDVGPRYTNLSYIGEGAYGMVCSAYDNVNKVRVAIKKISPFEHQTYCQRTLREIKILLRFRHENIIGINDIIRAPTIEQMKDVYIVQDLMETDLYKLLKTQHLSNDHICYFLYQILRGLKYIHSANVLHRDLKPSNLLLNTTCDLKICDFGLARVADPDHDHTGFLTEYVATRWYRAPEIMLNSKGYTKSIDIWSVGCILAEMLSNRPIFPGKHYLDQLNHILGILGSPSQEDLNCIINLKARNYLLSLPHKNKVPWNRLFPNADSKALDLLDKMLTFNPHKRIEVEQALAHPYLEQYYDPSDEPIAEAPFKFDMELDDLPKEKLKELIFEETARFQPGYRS
Chain of Ribosomal protein S6 kinase alpha-1 (Q15418 whole entry): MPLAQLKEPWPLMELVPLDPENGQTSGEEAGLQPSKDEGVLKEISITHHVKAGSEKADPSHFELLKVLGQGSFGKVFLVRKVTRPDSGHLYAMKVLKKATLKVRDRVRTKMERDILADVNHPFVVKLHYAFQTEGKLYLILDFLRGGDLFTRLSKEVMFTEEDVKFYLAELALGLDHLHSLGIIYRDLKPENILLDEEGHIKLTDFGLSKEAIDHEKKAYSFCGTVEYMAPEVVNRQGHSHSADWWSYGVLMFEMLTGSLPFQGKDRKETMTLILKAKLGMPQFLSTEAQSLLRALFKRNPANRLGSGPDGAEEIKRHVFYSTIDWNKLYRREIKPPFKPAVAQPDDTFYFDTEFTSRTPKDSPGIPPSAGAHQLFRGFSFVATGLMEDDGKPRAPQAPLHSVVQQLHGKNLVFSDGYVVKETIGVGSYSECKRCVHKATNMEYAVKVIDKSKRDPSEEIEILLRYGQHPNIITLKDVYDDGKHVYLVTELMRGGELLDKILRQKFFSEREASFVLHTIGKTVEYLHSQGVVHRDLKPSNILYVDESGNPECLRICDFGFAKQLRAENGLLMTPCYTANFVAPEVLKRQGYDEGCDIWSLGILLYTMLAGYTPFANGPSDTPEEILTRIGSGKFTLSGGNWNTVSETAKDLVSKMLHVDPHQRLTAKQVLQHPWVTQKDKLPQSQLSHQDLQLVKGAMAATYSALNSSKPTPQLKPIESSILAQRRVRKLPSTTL
Chain of Protein kinase C beta type (P05771 2-671 limits assumed): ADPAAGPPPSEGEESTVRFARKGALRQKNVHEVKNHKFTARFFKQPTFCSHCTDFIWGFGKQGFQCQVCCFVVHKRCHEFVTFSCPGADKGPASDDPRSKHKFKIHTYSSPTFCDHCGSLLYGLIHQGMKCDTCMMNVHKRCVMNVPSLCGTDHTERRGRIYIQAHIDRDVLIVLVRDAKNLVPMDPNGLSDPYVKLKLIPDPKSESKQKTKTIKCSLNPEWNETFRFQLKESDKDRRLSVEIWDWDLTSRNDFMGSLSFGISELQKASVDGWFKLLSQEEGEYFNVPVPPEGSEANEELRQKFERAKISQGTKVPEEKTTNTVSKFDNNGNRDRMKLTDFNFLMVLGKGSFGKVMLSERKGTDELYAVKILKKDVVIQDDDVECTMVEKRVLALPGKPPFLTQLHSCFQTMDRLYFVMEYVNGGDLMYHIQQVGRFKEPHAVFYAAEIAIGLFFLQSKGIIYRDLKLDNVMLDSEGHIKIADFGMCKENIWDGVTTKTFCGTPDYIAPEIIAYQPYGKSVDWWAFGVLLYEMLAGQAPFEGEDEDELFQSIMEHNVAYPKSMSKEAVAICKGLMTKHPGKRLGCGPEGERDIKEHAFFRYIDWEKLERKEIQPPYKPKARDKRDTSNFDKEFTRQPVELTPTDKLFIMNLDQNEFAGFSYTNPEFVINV
Chain of Calcium/calmodulin-dependent protein kinase type II subunit beta (Homo sapiens) (Q13554 whole entry): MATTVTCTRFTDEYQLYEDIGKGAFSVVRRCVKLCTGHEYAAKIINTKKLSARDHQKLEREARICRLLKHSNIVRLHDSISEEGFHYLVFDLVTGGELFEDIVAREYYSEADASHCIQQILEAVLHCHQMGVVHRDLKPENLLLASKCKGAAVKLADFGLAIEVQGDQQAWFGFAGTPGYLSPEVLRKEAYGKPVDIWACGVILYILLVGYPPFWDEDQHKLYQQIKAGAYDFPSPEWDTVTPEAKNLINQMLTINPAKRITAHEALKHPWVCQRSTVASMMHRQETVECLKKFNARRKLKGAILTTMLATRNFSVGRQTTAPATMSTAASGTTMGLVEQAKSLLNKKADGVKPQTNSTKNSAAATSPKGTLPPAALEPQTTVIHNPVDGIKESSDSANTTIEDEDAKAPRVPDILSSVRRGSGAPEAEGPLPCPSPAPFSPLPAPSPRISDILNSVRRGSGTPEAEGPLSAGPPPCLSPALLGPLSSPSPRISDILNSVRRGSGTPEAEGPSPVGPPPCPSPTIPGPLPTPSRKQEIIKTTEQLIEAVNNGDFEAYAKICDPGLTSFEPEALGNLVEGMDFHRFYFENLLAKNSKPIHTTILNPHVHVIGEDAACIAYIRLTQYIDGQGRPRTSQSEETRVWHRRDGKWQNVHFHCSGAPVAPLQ
Chain of Serine/threonine-protein kinase tousled-like 2 (Homo sapiens) (Q86UE8 whole entry, looked up, the tested form may be a part): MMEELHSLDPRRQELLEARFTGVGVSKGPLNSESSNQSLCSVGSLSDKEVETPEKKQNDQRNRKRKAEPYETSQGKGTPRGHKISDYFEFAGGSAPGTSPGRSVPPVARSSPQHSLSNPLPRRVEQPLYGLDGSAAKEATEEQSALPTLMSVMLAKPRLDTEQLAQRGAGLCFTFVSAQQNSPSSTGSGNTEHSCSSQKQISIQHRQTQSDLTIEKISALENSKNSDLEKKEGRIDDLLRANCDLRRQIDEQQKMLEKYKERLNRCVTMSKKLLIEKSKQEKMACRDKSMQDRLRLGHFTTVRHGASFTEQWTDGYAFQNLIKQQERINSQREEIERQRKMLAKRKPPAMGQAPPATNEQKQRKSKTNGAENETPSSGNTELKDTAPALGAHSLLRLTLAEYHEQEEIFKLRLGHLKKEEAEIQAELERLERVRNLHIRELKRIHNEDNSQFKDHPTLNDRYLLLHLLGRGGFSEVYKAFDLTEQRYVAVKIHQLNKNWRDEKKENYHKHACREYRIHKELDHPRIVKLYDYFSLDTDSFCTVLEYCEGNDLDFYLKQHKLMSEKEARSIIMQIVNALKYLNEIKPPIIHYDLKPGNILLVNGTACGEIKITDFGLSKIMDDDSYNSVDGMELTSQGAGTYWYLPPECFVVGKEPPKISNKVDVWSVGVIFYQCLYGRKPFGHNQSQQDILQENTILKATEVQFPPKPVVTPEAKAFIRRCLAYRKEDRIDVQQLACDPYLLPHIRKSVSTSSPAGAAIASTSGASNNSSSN

% of control [1]: 0.629%
SMILES: Cn1cc(-n2cnc3c(NCc4nc5cc(Cl)c(Cl)cc5[nH]4)nc(N4CCOCC4)nc32)cn1

SMILES: Nc1cnc(N2CCc3cc(S(=O)(=O)Nc4c(F)cc(Cl)cc4F)cc(N4CCCC4=O)c32)nc1 [TP-020n]
% of control [2]: 100%

SMILES: CCC(=O)N1CCN(c2ccc(-n3c(=O)ccc4cnc5ccc(-c6cnc7ccccc7c6)cc5c43)cc2C(F)(F)F)CC1
% of control [3]: 100%

SMILES: C=CC(=O)Nc1cc(-n2c(=O)ccc3cnc4ccc(-c5ccc(NS(C)(=O)=O)cc5)cc4c32)ccc1C
% of control ([4]; at 1 µM): 100% | % of control ([4]; at 10 µM): 75% | % of control ([5]; at 1 µM): 79% | % of control ([5]; at 10 µM): 100% | % of control ([6]; at 1 µM): 94% | % of control ([6]; at 10 µM): 100%

SMILES: CN(C)CCOc1ccc(-c2nc(-c3ccncc3)c(-c3ccc4c(c3)CC/C4=N\O)[nH]2)cc1
% of control [7]: 98%

% of control [8]: 1.8%
SMILES: CCc1ccccc1C(=O)Nc1n[nH]c2c(C)c(F)c(C3C(C#N)=C(C)N(C)C(C)=C3C#N)cc12 [BAY-3827]

SMILES: CNC(=O)Nc1ccc(-c2nc(N3CC4CCC(C3)O4)c3cnn(C4CCC5(CC4)OCCO5)c3n2)cc1
% of inhibition [9]: 9%

SMILES: C=CC(=O)Nc1ccc(C(=O)Nc2[nH]nc3c2CN(C(=O)N[C@H](CN(C)C)c2ccccc2)C3(C)C)cc1
% of engagement [10]: -8.6%

SMILES: O=C(NOC[C@H](O)CO)c1ccc(F)c(F)c1Nc1ccc(I)cc1F
% of control [11]: 6.1% | % of control [12]: 95%
